This is an account of results in US8288552B2, “Dihydropyridone amidesas P2X7 modulators” (Roche Palo Alto LLC, priority 2008, dated 2012).

The test deals with T1, P2X7 (UniProt Q99572).
T1 sequence (Q99572 1-595): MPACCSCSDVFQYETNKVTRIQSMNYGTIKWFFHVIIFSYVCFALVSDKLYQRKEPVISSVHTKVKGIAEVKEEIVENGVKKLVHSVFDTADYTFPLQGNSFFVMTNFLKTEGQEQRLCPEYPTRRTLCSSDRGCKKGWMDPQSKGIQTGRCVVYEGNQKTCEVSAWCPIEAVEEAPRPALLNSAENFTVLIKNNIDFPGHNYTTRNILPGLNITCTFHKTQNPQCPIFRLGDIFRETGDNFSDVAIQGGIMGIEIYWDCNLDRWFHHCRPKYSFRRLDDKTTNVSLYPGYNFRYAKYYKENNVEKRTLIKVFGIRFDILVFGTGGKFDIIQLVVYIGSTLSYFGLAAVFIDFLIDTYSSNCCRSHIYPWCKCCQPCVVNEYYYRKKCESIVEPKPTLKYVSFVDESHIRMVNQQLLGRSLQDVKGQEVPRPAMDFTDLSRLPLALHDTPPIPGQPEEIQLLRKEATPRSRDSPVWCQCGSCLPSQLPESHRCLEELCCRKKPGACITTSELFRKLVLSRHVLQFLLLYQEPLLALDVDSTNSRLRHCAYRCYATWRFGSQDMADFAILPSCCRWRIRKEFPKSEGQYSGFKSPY
As to the kind of experiment: P2X7 pKi of Table 1. It counts as cell-based. As to the method:
Intracellular Calcium Flux (FLIPR) Assay
Compound and Reagent Preparation
Stock solutions of compounds were prepared from powders as a 10 mM DMSO stock solution. These solutions were stored at RT during the two week period of these experiments to prevent freeze-thaw of the DMSO stocks. The DMSO stocks were added to the appropriate assay buffer at a concentration of 10 μM, and then diluted serially to the final concentrations that were tested. […] The aqueous solutions of compounds as well as ATP (Sigma A7699) and BzATP (Sigma B6396) were prepared fresh for each day of experiment.
1321N1 cells stably expressing the full length human P2X7 gene (1321N1-hP2X7) and HEK293 cells stably expressing the full length rat P2X7 gene (HEK293-rP2X7) were obtained from the Roche Cell Culture Facility. 1321N1-hP2X7 cells were grown in Dulbecco's Modified Eagle's Medium (DMEM) high glucose supplemented with 10% FBS and 250 μg/mL G418. HEK293-rP2X7 cells were grown in DMEM/F-12 supplemented with 10% FBS, 1 mM CaCl2, 2 mM MgCl2, 2 mM L-Glutamine and 500 μg/ml G418. Cells were split such that they never became >70% confluent.
Intracellular Calcium Flux (FLIPR)
On the day prior to the experiment, 1321N1-hP2X7 or HEK293-rP2X7 cells were released into suspension with calcium-free PBS+Versene and washed by centrifugation with calcium-free PBS to remove the Versene. Cells were resuspended in growth medium at a density of 2.5×10^5 cells/mL and seeded into black walled, clear bottom 96 well plates (50,000 cells/well) approximately 18 hr prior to intracellular calcium flux experiments.
On the day of the experiment, plates were washed with FLIPR buffer (calcium- and magnesium-free Hank's Balanced Salt Solution (HBSS) supplemented with 10 mM Hepes, 2.5 mM probenecid and 2 mM calcium chloride) using a BIO-TEK 96 channel plate washer and incubated with […] fluo-3 dye at 37° C. for one hr. The dye was then removed by plate washing and the cells were allowed to equilibrate for 20 min at room temperature with antagonist or vehicle (FLIPR buffer). Agonist (100 μM BzATP final concentration for hP2X7; 5 μM BzATP final concentration or rP2X7) was added online with the FLIPR and fluorescence measurements made at 1 sec intervals for 60 sec followed by 3 sec intervals for a further 4 min (5 min total). A final addition of 5 μM ionomycin was made and the maximal BzATP-evoked fluorescence normalized to the maximal ionomycin-evoked fluorescence.
`COc1cc(Br)c(NC(=O)C2=CNC(=O)CC2c2ccccc2)cc1OC` (centres unmarked) [Compound 1, 6-Oxo-4-phenyl-1,4,5,6-tetrahydro-pyridine-3-carboxylic acid(2-bromo-4,5-dimethoxy-phenyl)-amide] displayed a negative logarithm of the Ki (pKi) of 7.4925.

As for `COc1cc(NC(=O)C2=CNC(=O)CC2c2ccccc2)c(Br)cc1C` (centres unmarked) [Compound 2, 6-Oxo-4-phenyl-1,4,5,6-tetrahydro-pyridine-3-carboxylic acid(2-bromo-5-methoxy-4-methyl-phenyl)-amide], the pKi was 6.595.

As for `COc1cc(NC(=O)C2=CNC(=O)CC2c2ccccc2)c(Br)cc1Cl` (centres unmarked) [Compound 3, 6-Oxo-4-phenyl-1,4,5,6-tetrahydro-pyridine-3-carboxylic acid(2-bromo-4-chloro-5-methoxy-phenyl)-], the negative logarithm of the Ki (pKi) amounted to 5.95. Compound `COc1cc(NC(=O)C2=CNC(=O)CC2c2ccc(F)cc2)c(Br)cc1C` (centres unmarked) [Compound 4, 4-(4-Fluoro-phenyl)-6-oxo-1,4,5,6-tetrahydro-pyridine-3-carboxylic acid(2-bromo-5-methoxy-4-methyl-phenyl)-amide] returned a pKi of 6.6.

Regarding `COc1cc(NC(=O)C2=CNC(=O)CC2c2cccc(F)c2)c(Br)cc1C` (centres unmarked) [Compound 5, 4-(3-Fluoro-phenyl)-6-oxo-1,4,5,6-tetrahydro-pyridine-3-carboxylic acid(2-bromo-5-methoxy-4-methyl-phenyl)-amide], the pKi worked out at 6.726.

The compound `COc1cc(NC(=O)C2=CNC(=O)CC2c2ccc(F)cc2)c(Br)cc1Cl` (centres unmarked) [Compound 6, 4-(4-Fluoro-phenyl)-6-oxo-1,4,5,6-tetrahydro-pyridine-3-carboxylic acid(2-bromo-4-chloro-5-methoxy-phenyl)-amide] registered a pKi of 6.166.

For the compound `COc1cc(Br)c(NC(=O)C2=CNC(=O)CC2c2ccc(F)cc2)cc1OC` (centres unmarked) [Compound 7, 4-(4-Fluoro-phenyl)-6-oxo-1,4,5,6-tetrahydro-pyridine-3-carboxylic acid(2-bromo-4,5-dimethoxy-phenyl)-amide], the pKi amounted to 7.463.

In turn, `COc1cc(NC(=O)C2=CNC(=O)CC2c2cccc(F)c2)c(Br)cc1Cl` (centres unmarked) [Compound 9, 4-(3-Fluoro-phenyl)-6-oxo-1,4,5,6-tetrahydro-pyridine-3-carboxylic acid(2-bromo-4-chloro-5-methoxy-phenyl)-amide] returned a pKi of 6.766. To `COc1cc(NC(=O)C2=CNC(=O)CC2c2ccc(F)cc2)ccc1Cl` (centres unmarked) [Compound 10, 4-(4-Fluoro-phenyl)-6-oxo-1,4,5,6-tetrahydro-pyridine-3-carboxylic acid(4-chloro-3-methoxy-phenyl)-amide] belongs 5.543; to `COc1cc(NC(=O)C2=CNC(=O)CC2c2ccc(F)cc2)ccc1C` (centres unmarked) [Compound 11, 4-(4-Fluoro-phenyl)-6-oxo-1,4,5,6-tetrahydro-pyridine-3 carboxylic acid(3-methoxy-4-methyl-phenyl)-amide], 6.03; to `COc1cc(Br)c(NC(=O)C2=CNC(=O)C[C@@H]2c2ccccc2)cc1OC` [Compound 12, (R)-6-Oxo-4-phenyl-1,4,5,6-tetrahydro-pyridine-3-carboxylic acid(2-bromo-4,5-dimethoxy-phenyl)-amide], 6.155. Compound `COc1cc(Br)c(NC(=O)C2=CNC(=O)C[C@H]2c2ccccc2)cc1OC` [Compound 13, (S)-6-Oxo-4-phenyl-1,4,5,6-tetrahydro-pyridine-3-carboxylic acid(2-bromo-4,5-dimethoxy-phenyl)-amide] displayed a pKi of 7.455. The compound `Cc1cc(C)cc(NC(=O)C2=CNC(=O)CC2c2ccc(F)cc2)c1` (centres unmarked) [Compound 14, 4-(4-Fluoro-phenyl)-6-oxo-1,4,5,6-tetrahydro-pyridine-3-carboxylic acid(3,5-dimethyl-phenyl)-amide] displayed a pKi of 6.535. Consider `COC(=O)c1ccc(C)c(NC(=O)C2=CNC(=O)CC2c2cccc(F)c2)c1` (centres unmarked) [Compound 16, 3-{[4-(3-Fluoro-phenyl)-6-oxo-1,4,5,6-tetrahydro-pyridine-3-carbonyl]-amino}-4-methyl-benzoic acid methyl ester], for which the pKi is on record as 6.43. `COc1cc(Br)c(NC(=O)C2=CNC(=O)CC2c2cccc(F)c2)cc1OC` (centres unmarked) [Compound 17, 4-(3-Fluoro-phenyl)-6-oxo-1,4,5,6-tetrahydro-pyridine-3-carboxylic acid(2-bromo-4,5-dimethoxy-phenyl)-amide] registered a pKi of 6.77. Consider `COc1ccc(Br)c(NC(=O)C2=CNC(=O)CC2c2ccc(F)cc2)c1` (centres unmarked) [Compound 18, 4-(4-Fluoro-phenyl)-6-oxo-1,4,5,6-tetrahydro-pyridine-3-carboxylic acid(2-bromo-5-methoxy-phenyl)-amide], for which the negative logarithm of the Ki (pKi) is 6.08. Regarding `COc1ccc(Br)c(NC(=O)C2=CNC(=O)CC2c2cccc(F)c2)c1` (centres unmarked) [Compound 19, 4-(3-Fluoro-phenyl)-6-oxo-1,4,5,6-tetrahydro-pyridine-3-carboxylic acid(2-bromo-5-methoxy-phenyl)-amide], the pKi worked out at 6.19. The value for `COc1ccc(C)c(NC(=O)C2=CNC(=O)CC2c2cccc(F)c2)c1` (centres unmarked) [Compound 20, 4-(3-Fluoro-phenyl)-6-oxo-1,4,5,6-tetrahydro-pyridine-3-carboxylic acid(5-methoxy-2-methyl-phenyl)-amide] was 6.815; that for `CC(=O)Nc1ccc(Cl)c(NC(=O)C2=CNC(=O)CC2c2cccc(F)c2)c1` (centres unmarked) [Compound 21, 4-(3-Fluoro-phenyl)-6-oxo-1,4,5,6-tetrahydro-pyridine-3-carboxylic acid(5-acetylamino-2-chloro-phenyl)-amide] was 6.02. To `COc1cc(NC(=O)C2=CNC(=O)CC2c2cccc(F)c2)c(Cl)cc1Cl` (centres unmarked) [Compound 22, 4-(3-Fluoro-phenyl)-6-oxo-1,4,5,6-tetrahydro-pyridine-3-carboxylic acid(2,4-dichloro-5-methoxy-phenyl)-amide] belongs 6.12; to `COC(=O)c1cc(Br)c(NC(=O)C2=CNC(=O)CC2c2cccc(F)c2)cc1OC` (centres unmarked) [Compound 23, 5-Bromo-4-{[4-(3-fluoro-phenyl)-6-oxo-1,4,5,6-tetrahydro-pyridine-3-carbonyl]-amino}-2-methoxy-benzoic acid methyl ester], 5.92; to `COc1cc(C)c(NC(=O)C2=CNC(=O)CC2c2cccc(F)c2)cc1OC` (centres unmarked) [Compound 24, 4-(3-Fluoro-phenyl)-6-oxo-1,4,5,6-tetrahydro-pyridine-3-carboxylic acid(4,5-dimethoxy-2-methyl-phenyl)-amide], 7.69. To `O=C1CC(c2cccc(F)c2)C(C(=O)Nc2cc(O)ccc2Cl)=CN1` (centres unmarked) [Compound 25, 4-(3-Fluoro-phenyl)-6-oxo-1,4,5,6-tetrahydro-pyridine-3-carboxylic acid(2-chloro-5-hydroxy-phenyl)-amide] belongs 5.395; to `Cc1ccc(Cl)c(NC(=O)C2=CNC(=O)CC2c2cccc(F)c2)c1F` (centres unmarked) [Compound 26, 4-(3-Fluoro-phenyl)-6-oxo-1,4,5,6-tetrahydro-pyridine-3-carboxylic acid(6-chloro-2-fluoro-3-methyl-phenyl)-amide], 5.73.

Compound `O=C1CC(c2cccc(F)c2)C(C(=O)Nc2cc(Cl)ccc2OC(F)F)=CN1` (centres unmarked) [Compound 27, 4-(3-Fluoro-phenyl)-6-oxo-1,4,5,6-tetrahydro-pyridine-3-carboxylic acid(5-chloro-2-difluoromethoxy-phenyl)-amide] displayed a pKi of 5.18. `O=C1CC(c2cccc(F)c2)C(C(=O)Nc2c(F)cc(F)cc2Cl)=CN1` (centres unmarked) [Compound 28, 4-(3-Fluoro-phenyl)-6-oxo-1,4,5,6-tetrahydro-pyridine-3-carboxylic acid(2-chloro-4,6-difluoro-phenyl)-amide] yielded a pKi of 5.215.

What is called pKi is the Ki on a negative log10 scale, so that one unit is a factor of ten.
